{"source": "patent US10392419B2", "about": "“Modified cyclic dinucleotide compounds” (Boehringer Ingelheim International GmbH, priority 2017, dated 2019)", "key": {"[1]": {"molecular_target": "Human STING (hSTING, residues 155-341, wild-type sequence) (Homo sapiens, UniProt Q86WV6, H232R)", "sequence (Q86WV6 155-341 H232R limits assumed)": "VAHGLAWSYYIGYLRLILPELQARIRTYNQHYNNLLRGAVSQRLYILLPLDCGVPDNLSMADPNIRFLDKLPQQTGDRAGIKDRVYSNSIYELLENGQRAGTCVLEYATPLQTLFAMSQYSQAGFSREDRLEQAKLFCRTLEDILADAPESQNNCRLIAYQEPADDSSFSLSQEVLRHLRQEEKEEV", "assay": "hSTING binding by differential scanning fluorimetry (DSF)", "settings": "for binding to human STING compared to the other diastereomer(s) of the same Example / thermal shift compared to ribose Example 5/Compound 23 in WO 2016/145102: in words", "protocol": "Differential Scanning Fluorimetry (DSF)\nAssay buffer: 20 mM Tris, 150 mM NaCl pH7.5\nTarget Protein: Human STING (hSTING, residues 155-341, wild-type sequence with N-terminal His8-tag and TEV-cleavage site, MW: 23601.5 Da)\nProtein stock solution: c=309 μM stock solution in assay buffer\nFinal Assay concentrations of test compounds: 100 μM, 3 μM target protein, “5×” SYPR Orange\n1) Compound stock solutions and dilutions thereof were prepared in assay buffer\n2) 5 μl fluorescent dye stock solution (5000×SYPRO Orange) was mixed with 50 μl target protein (309 μM) and 945 μl buffer.\n3) 2 μl of this protein-dye-mixture (25×SYPRO Orange and 15 μM Protein) was added to 8 μl compound solution.\n4) Certain well positions were used as negative control.\n5) The plates were prepared for duplicate measurement and centrifuged for 2 min at 1000 g.\n6) In the measurement, 160 cycles of 0.5° C. were used (temperature ramp 15 s/cycle, 15° C. to 95° C.).\nData analysis: The dissociation curves were processed in Bio-Rad CFX Manager. Peak type was set to “negative”. In the case of Examples 1.1, 2.1, 3.1 and 4.1, at least two Tm measurements were averaged."}, "[2]": {"molecular_target": "T1, human STING protein in THP1-Blue ISG cells (Homo sapiens, UniProt Q86WV6, G230A/H232R/R293Q/R71H)", "T1 construct": "endogenous STING levels from the parental, unmodified THP1-Blue ISG cell lines; endogenous in cells; host or cells: THP1-Blue ISG cells", "T1 sequence (Q86WV6 whole entry R71H/G230A/H232R/R293Q)": "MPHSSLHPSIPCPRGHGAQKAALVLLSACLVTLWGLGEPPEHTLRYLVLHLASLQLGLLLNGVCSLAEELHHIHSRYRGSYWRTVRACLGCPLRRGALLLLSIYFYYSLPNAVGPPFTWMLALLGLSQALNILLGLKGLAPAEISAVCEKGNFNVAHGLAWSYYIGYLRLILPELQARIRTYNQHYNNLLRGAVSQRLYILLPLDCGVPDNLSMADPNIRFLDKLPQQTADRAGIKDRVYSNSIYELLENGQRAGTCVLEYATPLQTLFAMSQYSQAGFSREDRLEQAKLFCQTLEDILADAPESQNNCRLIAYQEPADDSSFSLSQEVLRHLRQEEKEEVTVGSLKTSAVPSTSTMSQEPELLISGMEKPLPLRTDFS", "assay": "In vitro cytokine induction, THP1-Blue ISG reporter cell assay (IRF-inducible SEAP)", "assay_type": "cell-based", "settings": "24 hours incubation, SEAP OD at 620 nm", "description": "In Vitro Cytokine Induction\nActivation of the STING protein expressed in THP1 cells results in an increase of interferon production. By the stable integration of an interferon regulatory factor (IRF)-inducible SEAP (secreted embryonic alkaline phosphatase) reporter construct the functional interferon signaling pathway can be monitored. Using Invivogen's QUANTI-Blue™ colorimetric enzyme assay and a suitable optical density (OD) reader the activity of SEAP can be detected and quantified. This technique could be used to characterize pharmacological modification of the STING protein.\nMeasurements of SEAP activity were performed in THP1-Blue ISG cells stably expressing the human STING protein and the IRF-inducible SEAP reporter construct. Cells were cultivated for expansion in RPMI1640 medium with 10% fetal calf serum, 50 μg/ml Penicillin-Streptomycin, 100 μg/ml Zeocin, and 100 μg/ml Normocin in a 37°, 95% humidity and 5% CO2 incubator. Assay-ready cells were stored as frozen stocks.\nIn preparation for the assay, the cells were thawed in Zeocin-/Normocin-free medium and were distributed into the assay plates with a density of 15000 cells/15 μL per well. Compounds were prepared by an 8- or 16-point serial dilution in 50% aqueous DMSO and a final dilution step into medium to ensure a final DMSO concentration of 0.5% in the assay. 5 μL of diluted compounds plus 5 μL medium were added to the plates, followed by a 24 hours incubation at 37° C.\nAt the day of the assay, 75 μl per well of Quanti-Blue reagent was added to all wells of the plate and the plate was incubated another 30 minutes at 37° C. The OD at 620 nm was measured on the EnVision reader (PerkinElmer). EC50 values and Hill slopes were derived from 8- or 16-point four parametric non-linear curve fittings with the Megalab software (Boehringer Ingelheim) using the OD at 620 nm."}, "[3]": {"settings": "100 μM test compound, 3 μM target protein, Sodium Salt"}, "[4]": {"settings": "100 μM test compound, 3 μM target protein"}}}
{"compound": "Cyclic (LNA-guanosine-(3′→5′)-phosphorothioate-2′-F-2′-deoxyadenosine-(3′→5′)-phosphorothioate), Sodium Salt [Example 3.2]", "values": [{"measurement": "hSTING Tm shift", "setting": "[1]; [3]", "result": 22.4, "unit": "°C"}, {"measurement": "EC50", "setting": "[2]; Sodium Salt", "result": 70, "unit": "nM"}]}
{"compound": "Cyclic (LNA-adenosine-(3′→5′)-phosphorothioate-2′-F-2′-deoxyguanosine-(3′→5′)-phosphorothioate), Sodium Salt [Example 2.1]", "values": [{"measurement": "hSTING Tm shift", "setting": "[1]; [3]", "result": 30.3, "unit": "°C"}, {"measurement": "binding to human STING compared to the other diastereomer(s) of the same Example", "setting": "[1]", "result": "improved binding to human STING as compared to Example 2.2"}, {"measurement": "thermal shift compared to ribose Example 5/Compound 23 in WO 2016/145102", "setting": "[1]", "result": "significantly larger thermal shifts"}, {"measurement": "EC50", "setting": "[2]; Sodium Salt", "result": 140, "unit": "nM"}]}
{"compound": "Nc1ncnc2c1ncn2[C@@H]1O[C@@H]2COP(=O)(S)O[C@H]3[C@H]4OC[C@@]3(COP(=O)(S)O[C@H]2[C@H]1F)O[C@H]4n1cnc2c(N)ncnc21", "note": "(single isomer, unassigned) [Example 1.2, Cyclic (LNA-adenosine-(3′→5′)-phosphorothioate-2′-F-2′-deoxyadenosine-(3′→5′)-phosphorothioate)]", "values": [{"measurement": "hSTING Tm shift", "setting": "[1]; [4]", "result": 21.0, "unit": "°C"}, {"measurement": "EC50", "setting": "[2]", "result": 60, "unit": "nM"}]}
{"compound": "Cyclic (LNA-guanosine-(3′→5′)-phosphorothioate-2′-F-2′-deoxyadenosine-(3′→5′)-phosphorothioate), Sodium Salt [Example 3.1]", "values": [{"measurement": "hSTING Tm shift", "setting": "[1]; [3]", "result": 30.7, "unit": "°C"}, {"measurement": "binding to human STING compared to the other diastereomer(s) of the same Example", "setting": "[1]", "result": "improved binding to human STING as compared to other Example 3 diastereomers"}, {"measurement": "thermal shift compared to ribose Example 5/Compound 23 in WO 2016/145102", "setting": "[1]", "result": "significantly larger thermal shifts"}, {"measurement": "EC50", "setting": "[2]; Sodium Salt", "result": 150, "unit": "nM"}]}
{"compound": "Nc1ncnc2c1ncn2[C@@H]1O[C@@H]2COP(=O)(S)O[C@H]3[C@H]4OC[C@@]3(COP(=O)(S)O[C@H]2[C@H]1F)O[C@H]4n1cnc2c(N)ncnc21", "note": "(single isomer, unassigned) [Example 1.1, Cyclic (LNA-adenosine-(3′→5′)-phosphorothioate-2′-F-2′-deoxyadenosine-(3′→5′)-phosphorothioate)]", "values": [{"measurement": "ΔTm at 100 µM", "setting": "[1]; 100 μM test compound, 3 μM target protein, read-out: hSTING Tm shift", "result": 27.6, "unit": "°C"}, {"measurement": "binding to human STING compared to the other diastereomer(s) of the same Example", "setting": "[1]", "result": "improved binding to human STING as compared to Example 1.2"}, {"measurement": "thermal shift compared to ribose Example 5/Compound 23 in WO 2016/145102", "setting": "[1]", "result": "significantly larger thermal shifts"}, {"measurement": "EC50", "setting": "[2]", "result": 110, "unit": "nM"}]}
{"compound": "Cyclic (LNA-adenosine-(3′→5′)-phosphorothioate-2′-F-2′-deoxyinosine-(3′→5′)-phosphorothioate), Sodium Salt [Example 4.2]", "values": [{"measurement": "hSTING Tm shift", "setting": "[1]; [3]", "result": 21.4, "unit": "°C"}, {"measurement": "EC50", "setting": "[2]; Sodium Salt", "result": 110, "unit": "nM"}]}
{"compound": "Cyclic (LNA-guanosine-(3′→5′)-phosphorothioate-2′-F-2′-deoxyadenosine-(3′→5′)-phosphorothioate), Sodium Salt [Example 3.3]", "values": [{"measurement": "hSTING Tm shift", "setting": "[1]; [3]", "result": 21.6, "unit": "°C"}, {"measurement": "EC50", "setting": "[2]; Sodium Salt", "result": 130, "unit": "nM"}]}
{"compound": "Cyclic (LNA-guanosine-(3′→5′)-phosphorothioate-2′-F-2′-deoxyadenosine-(3′→5′)-phosphorothioate), Sodium Salt [Example 3.4]", "values": [{"measurement": "hSTING Tm shift", "setting": "[1]; [3]", "result": 10.9, "unit": "°C"}, {"measurement": "EC50", "setting": "[2]; Sodium Salt", "result": 2000, "unit": "nM"}]}
{"compound": "Cyclic (LNA-adenosine-(3′→5′)-phosphorothioate-2′-F-2′-deoxyguanosine-(3′→5′)-phosphorothioate), Sodium Salt [Example 2.2]", "values": [{"measurement": "hSTING Tm shift", "setting": "[1]; [3]", "result": 21.8, "unit": "°C"}, {"measurement": "EC50", "setting": "[2]; Sodium Salt", "result": 50, "unit": "nM"}]}
{"compound": "Cyclic (LNA-adenosine-(3′→5′)-phosphorothioate-2′-F-2′-deoxyinosine-(3′→5′)-phosphorothioate), Sodium Salt [Example 4.1]", "values": [{"measurement": "hSTING Tm shift", "setting": "[1]; [3]", "result": 30.0, "unit": "°C"}, {"measurement": "binding to human STING compared to the other diastereomer(s) of the same Example", "setting": "[1]", "result": "improved binding to human STING as compared to Example 4.2"}, {"measurement": "thermal shift compared to ribose Example 5/Compound 23 in WO 2016/145102", "setting": "[1]", "result": "significantly larger thermal shifts"}, {"measurement": "EC50", "setting": "[2]; Sodium Salt", "result": 170, "unit": "nM"}]}
{"compound": "Nc1nc2c(ncn2C2OC3COP(O)(=S)OC4C(COP(O)(=S)OC3C2F)OC(n2cnc3c(N)ncnc32)C4O)c(=O)[nH]1", "note": "(centres unmarked) [Example 5 Compound 23 in WO 2016/145102, 3′3′-RR-(2′F-G)(A), reference compound]", "values": [{"measurement": "hSTING Tm shift", "setting": "[1]; [4]", "result": 21.1, "unit": "°C"}]}
